The values below come from the supplement of paper PMC4862054.

Each structure is given as a SMILES string. Bounds are passed on as bounds.

Assay [1] relates to BT-549. The conditions noted are these: 72 h. The procedure, abridged: (§1)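 Breast cancer cell lines (20 µl suspension) were seeded into 384-well plates holding compound at 5 concentrations in 10-fold steps over a compound-specific 10,000-fold range, then incubated 72 h. Cell death was read first by CellTox Green fluorescence (485/520 nm), then viability by CellTiter-Glo luminescence after 10 min at room temperature. Each plate was normalised to 0.1 % DMSO and a positive kill control. EC50 was fitted from the dose-response curves and censored at the top concentration.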

The subject of assay [2] is CAL-51. Particulars: 72 h. The procedure, abridged: as §1
The subject of assay [3] is MDA-MB-453. In words: normalised viability (% of control), CellTiter-Blue; higher = more viable cells (about 100 = DMSO control). The conditions noted are these: incubation time: 72 h. The procedure:
(§2)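 DSRT, CellTiter-Blue viability, 72 h incubation. Signal is normalised to DMSO and benzethonium chloride controls. Value is the normalised response at dose 9.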
A general note: The colour change of resazurin is a common sign of viable cells or microbes.

The test system of assay [4] is CAL-148. Described as above. Particulars: incubation time: 72 h. On the procedure:
as §2

Assay [5] has as its system HDQ-P1. The description is as above. The conditions noted are these: incubation time: 72 h. On the procedure:
as §2

Assay [6] deals with CAL-51. The description is as above. The conditions noted are these: incubation time: 72 h. On the procedure:
as §2

Assay [7] deals with CAL-85-1. The assay is described as above. Particulars: incubation time: 72 h. The procedure:
as §2

Assay [8] has as its system DU-4475. Described as above. The conditions noted are these: incubation time: 72 h. The procedure: as §2
For assay [9], the system named is MDA-MB-453. Described as above. The conditions noted are these: incubation time: 72 h. On the procedure: (§3)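 DSRT, CellTiter-Blue viability, 72 h incubation. Signal is normalised to DMSO and benzethonium chloride controls. Value is the normalised response at dose 6.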
The source holds these as a separate data set.

The test system of assay [10] is CAL-148. The assay is described as above. Particulars: incubation time: 72 h. On the procedure: as §3
The source holds these as a separate data set.

Assay [11] concerns HDQ-P1. The description is as above. The conditions noted are these: incubation time: 72 h. The procedure: as §3
This is another data set of the same source.

Assay [12] has as its system CAL-51. The assay is described as above. The conditions noted are these: incubation time: 72 h. On the procedure:
as §3
The source holds these as a separate data set.

In assay [13] the test system is CAL-85-1. Described as above. The conditions noted are these: incubation time: 72 h. The procedure: as §3
The source holds these as a separate data set.

Assay [14] has as its system DU-4475. The assay is described as above. Particulars: incubation time: 72 h. On the procedure: as §3
This is another data set of the same source.

For assay [15], the system named is MDA-MB-453. Described as above. Particulars: incubation time: 72 h. On the procedure:
(§4)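 DSRT, CellTiter-Blue viability, 72 h incubation. Signal is normalised to DMSO and benzethonium chloride controls. Value is the normalised response at dose 3.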
The source holds these as a separate data set.

The test system of assay [16] is CAL-148. The assay is described as above. Particulars: incubation time: 72 h. The procedure: as §4
The source holds these as a separate data set.

In assay [17] the test system is HDQ-P1. Described as above. The conditions noted are these: incubation time: 72 h. On the procedure: as §4
This is another data set of the same source.

The subject of a further assay is MDA-MB-436. Described as above. Particulars: incubation time: 72 h. The procedure: as §4
The subject of the next assay is HCC1599. The assay is described as above. Particulars: incubation time: 72 h. The procedure: as §4
The subject of assay [18] is BT-549. The assay is described as above. Particulars: incubation time: 72 h. On the procedure: as §4
Another assay concerns HCC1143. The description is as above. Particulars: incubation time: 72 h. The procedure: as §4
Assay [19] concerns BT-474. Described as above. Particulars: incubation time: 72 h. On the procedure: as §4
The test system of the next assay is SK-BR-3. The assay is described as above. Particulars: incubation time: 72 h. The procedure:
as §4

A further assay has as its system CAL-120. Particulars: 72 h. The procedure, abridged: as §1
Another assay deals with Hs578T. The conditions noted are these: 72 h. Summed up: as §1
The subject of assay [20] is MDA-MB-453. The conditions noted are these: 72 h. Summed up: as §1
A further assay deals with HCC1937. Particulars: 72 h. Summed up: as §1
The next assay deals with MDA-MB-231. Particulars: 72 h. The procedure, abridged: as §1
Assay [21] has as its system BT-474. The conditions noted are these: 72 h. Summed up: as §1
For assay [22], the system named is CAL-85-1. Particulars: 72 h. Summed up: as §1
Another assay concerns MCF-10A. The conditions noted are these: 72 h. The procedure, abridged:
as §1

A further assay deals with MDA-MB-468. Particulars: 72 h. The procedure, abridged: as §1

Regarding `Nc1ncnc2c1c(COc1cccc(Cl)c1)nn2C1CCOCC1`, the “EC50, CellTiter-Glo” value in the assay on BT-549 [1] is greater than 10000 nM.
Regarding `C[C@]12CC[C@H](O)CC1=CC[C@@H]1[C@@H]2CC[C@]2(C)C(c3cccnc3)=CC[C@@H]12` [Abiraterone], the “EC50, CellTiter-Glo” value with CAL-51 [2] is 43.4 nM. Besides, the normalised viability was determined as 89.2% in the assay on MDA-MB-453 [3] (5000 nM); 92.1% in the assay on CAL-148 [4] (5000 nM); 113% in the assay with HDQ-P1 [5] (5000 nM); 92% with CAL-51 [6] (5000 nM); 82.1% in the assay with CAL-85-1 [7] (5000 nM); 93.3% in the assay with DU-4475 [8] (5000 nM). The normalised viability was 105% in the assay on MDA-MB-453 [9] (150 nM); 93.8% with CAL-148 [10] (150 nM); 79.2% in the assay with HDQ-P1 [11] (150 nM); 102% with CAL-51 [12] (150 nM); 93.9% in the assay on CAL-85-1 [13] (150 nM); 92.2% in the assay on DU-4475 [14] (150 nM). Also, the normalised viability was determined as 91.6% in the assay with MDA-MB-453 [15] (5 nM); 86.7% in the assay with CAL-148 [16] (5 nM); 109% in the assay on HDQ-P1 [17] (5 nM); 126% in the assay on MDA-MB-436 (50 nM); 102% with HCC1599 (50 nM); 108% in the assay on BT-549 [18] (50 nM). The figures for the normalised viability in the assay with HCC1143 (50 nM), in the assay with BT-474 [19] (50 nM) and with SK-BR-3 (50 nM) were 75.2%, 112% and 73.4%, respectively.
As for `CC(C)(C#N)c1cc(Cn2cncn2)cc(C(C)(C)C#N)c1` [Anastrozole], the normalised viability was found to be 79.8% in the assay with MDA-MB-453 [3] (10000 nM); 94.2% with CAL-148 [4] (10000 nM); 98.6% in the assay on HDQ-P1 [5] (10000 nM); 104% in the assay on CAL-51 [6] (10000 nM); 93.9% in the assay with CAL-85-1 [7] (10000 nM); 112% in the assay with DU-4475 [8] (10000 nM). Further, the normalised viability in the assay with MDA-MB-453 [9] (300 nM) was 84.1%; in the assay with CAL-148 [10] (300 nM), 96.1%; with HDQ-P1 [11] (300 nM) it was 78%; with CAL-51 [12] (300 nM) it was 102%; in the assay on CAL-85-1 [13] (300 nM), 93.2%; in the assay with DU-4475 [14] (300 nM) it was 83.5%. The normalised viability in the assay on MDA-MB-453 [15] (10 nM) was 97.7%; in the assay on CAL-148 [16] (10 nM), 86.8%; in the assay with HDQ-P1 [17] (10 nM), 99.2%; with MDA-MB-436 (100 nM), 96%; with HCC1599 (100 nM), 102%; with BT-549 [18] (100 nM), 95.7%. Also, the normalised viability in the assay with HCC1143 (100 nM) amounted to 100%; in the assay with BT-474 [19] (100 nM), 101%; with SK-BR-3 (100 nM) it was 77.3%.
Regarding `CC(C)c1c(C(=O)Nc2ccccc2)c(-c2ccccc2)c(-c2ccc(F)cc2)n1CC[C@@H](O)C[C@@H](O)CC(=O)O` [Atorvastatin], the “EC50, CellTiter-Glo” value in the assay on CAL-120 was 1840 nM; in the assay on Hs578T, 7690 nM; in the assay with MDA-MB-453 [20], greater than 10000 nM; in the assay with HCC1937, 2370 nM; with MDA-MB-231, 1270 nM; with BT-474 [21], 1750 nM. Besides, the “EC50, CellTiter-Glo” value in the assay on CAL-51 [2] came out at 2210 nM; in the assay on CAL-85-1 [22] it was 1900 nM; in the assay on MCF-10A, 2280 nM; in the assay with MDA-MB-468 it was 4390 nM.
Take `O=C(O)CCCc1ccc(N(CCCl)CCCl)cc1` [Chlorambucil]: the normalised viability in the assay with MDA-MB-453 [3] (10000 nM) was 65%; in the assay on CAL-148 [4] (10000 nM), 89.7%; in the assay on HDQ-P1 [5] (10000 nM), 115%; with CAL-51 [6] (10000 nM), 96.5%; in the assay with CAL-85-1 [7] (10000 nM), 98%; in the assay on DU-4475 [8] (10000 nM), 90.9%. The normalised viability with MDA-MB-453 [9] (300 nM) was determined as 103%; with CAL-148 [10] (300 nM), 110%; in the assay with HDQ-P1 [11] (300 nM), 85.8%; in the assay on CAL-51 [12] (300 nM), 104%; with CAL-85-1 [13] (300 nM), 105%; in the assay with DU-4475 [14] (300 nM), 90.9%. The normalised viability came to 106% in the assay on MDA-MB-453 [15] (10 nM); 100% with CAL-148 [16] (10 nM); 112% in the assay on HDQ-P1 [17] (10 nM); 95.8% in the assay on MDA-MB-436 (100 nM); 132% with HCC1599 (100 nM); 100% in the assay with BT-549 [18] (100 nM). Moreover, the normalised viability with HCC1143 (100 nM) was 104%; in the assay on BT-474 [19] (100 nM), 115%; in the assay with SK-BR-3 (100 nM), 97.8%.
